The source of these data is patent EP0785714B2, “ANTIMICROBIAL COMPOSITION” (Moberg, Sven, priority 1994, dated 1996).

Read-outs that look alike come from different tables or passages of the source.

Data set [1] concerns Pityrosporum ovale. To be noted: 50 % aqueous solution; cited from earlier work.
Data set [2] deals with Tricophyton rubrum. Kind of data set: MIC of propylene glycol alone and mixed with lactic acid. Particulars: propylene glycol (100%) alone. In kind it is cell-based. An excerpt:
(§1) The minimal inhibitory concentration (MIC) for propylene glycol (100%) tested on the bacterium Staphylococcus aureus and the dermophyte Tricophyton rubrum dropped from 8 % to 0.15 % and 0.38 % respectively if lactic acid was mixed with propylene glycol in the ratios 3:10 or 2:3. The composition gave a minimal inhibitory effect at concentration 0.25% and 0.5 % respectively. These MIC-values should be compared with the considerably higher MIC-values of 40 %, which were obtained when propylene glycol at 20 % was combined with aluminium acetotartrate (SE 8802257-9). […] Also other concentration ratios gave stronger but not optimum effect. The antimicrobial effects were not proportionate to the degree of acidity (pH).

Data set [3] relates to Staphylococcus aureus. Described as above. In kind it is cell-based. To be noted: propylene glycol (100%) alone.
From the text: as §1

Data set [4] relates to fungi and bacteria. Particulars: in vitro, cited from earlier work; for antimicrobial effect on comparison: 30 % diol.
Data set [5] has as its system Candica albicans. Put plainly: MIC-plate determination (agar dilution), agents A1 and A2. In kind it is cell-based. To be noted: clinical isolate. As to the method: (§2) A determination of the minimum inhibitory concentration (MIC) was carried out for different compositions of acid/glycol on different microorganisms.
(§3) The components included in the composition were weighed with decimal precision. A dilution series in sterile destilled water was made where the completed composition is dilution 1. Dilution 2 is 50 % of the composition, dilution 3 is 25 % etc. One thus gets a series of 100 - 50 - 25 - 12.5 - 6.3- 3.1 - 1.6 - 0.8 - 0.4 - 0.2 - 0.1 %. To said dilutions the same amount (volume) of Oxoids Isosensitest agar was added at 62.4 g medium per litre.
(§4) The Isosensitest agar is prepared and sterilized according to the maker's instructions. […] Furthermore a plate without the composition was prepared, called a blanc plate. From the different mixtures MIC-plates are moulded in sterile Petri dishes. From each agent a suspension was made corresponding to MacFarland 1. From this 0.2 ml was added to each MIC-plate and the blanc plate with a pipette. The MIC-plates were incubated in a thermostat having an optimum temperature for the agent. The MIC-value is the concentration of the composition on the MIC-plate where growth has stopped completely. Example. Agent 1 grows in 0.1 %, 0.2 %, 0.4 %, On the 0.8 %-plate the growth is weak but visible.
For orientation: Agar dilution tests growth on a series of plates holding different concentrations.

In data set [6] the test system is Malassezia furfur. Put plainly: MIC-plate determination (agar dilution), agent B1. To be noted: agent B1, Malassezia furfur (Pityrosporum ovale). In kind it is cell-based. As to the method: as §2, §3, §4
Data set [7] deals with Aspergillus niger. Kind of data set: MIC-plate determination (agar dilution), agents D1 and D2. In kind it is cell-based. To be noted: clinical isolate. As to the method:
as §2, §3, §4

Data set [8] relates to Trichophyton rubrum. Kind of data set: MIC-plate determination (agar dilution), agents C1 and C2. In kind it is cell-based. Particulars: clinical isolate. Here is the method: as §2, §3, §4
Data set [9] relates to Pseudomonas aeruginosa. Kind of data set: MIC-plate determination (agar dilution), agents G1 and G2. In kind it is cell-based. Particulars: clinical isolate. As to the method:
as §2, §3, §4

In data set [10] the test system is Staphylococcus aureus. Kind of data set: MIC-plate determination (agar dilution), agents E1 and E2. In kind it is cell-based. To be noted: clinical isolate. As to the method: as §2, §3, §4
The test system of data set [11] is Streptococcus pyogenes. Put plainly: MIC-plate determination (agar dilution), agents F1 and F2. In kind it is cell-based. To be noted: clinical isolate. As to the method: as §2, §3, §4
Data set [12] has as its system Pityrosporum orbiculare. Put plainly: MIC-plate determination (agar dilution), agent B2. To be noted: agent B2, Pityrosporum orbiculare (Pityrosporum ovale). In kind it is cell-based. As to the method:
as §2, §3, §4

Data set [13] can be described thus: pH in the various MIC plates. In kind it is physicochemical. Here is the method: as §3, §4

Regarding `CC(O)CO` (stereo not drawn) [Composition 1, Propylene glycol], the “effect against Pityriasis versicolor” value in [1] is “effective”. Moreover, the “minimal inhibitory concentration (MIC) for propylene glycol” value in [2] and in data set [3] was 8% throughout. Besides, in data set [4], the “antimicrobial effect on comparison” value is “about as effective as 10 % hexylene glycol”.
Regarding `OCCCCO` [Composition 2, Butylene glycol], the “antimicrobial effect on comparison” value in data set [4] is given as “about as effective as 10 % hexylene glycol”.
As for `CC(O)CC(C)(C)O` (stereo not drawn) [Composition 3], the MIC-value in [5] (agent A1, Candica albicans) worked out at 6.3%; in data set [5] (agent A2, Candica albicans) it was 6.3%; in data set [6], 25%; in [7] (agent D1, Aspergillus niger), 6.3%; in [7] (agent D2, Aspergillus niger), 6.3%; in data set [8] (agent C1, Trichophyton rubrum), 0.8%. The MIC-value in data set [8] (agent C2, Trichophyton rubrum) is recorded as 0.8%; in [9] (agent G1, Pseudomonas aeruginosa), 1.6%; in data set [9] (agent G2, Pseudomonas aeruginosa) it was 3.1%; in data set [10] (agent E1, Staphylococcus aureus), 12.5%; in data set [10] (agent E2, Staphylococcus aureus), 12.5%; in [11] (agent F1, Streptococcus pyogenes), 12.5%. In addition, the MIC-value in [11] (agent F2, Streptococcus pyogenes) worked out at 12.5%; in data set [12], 25%. Moreover, the “pH in the MIC plate” value in data set [13] (MIC-plate 0.05 (% composition in Isosensitest agar)), in data set [13] (MIC-plate 0.1 (% composition in Isosensitest agar)), in [13] (MIC-plate 0.2 (% composition in Isosensitest agar)), in data set [13] (MIC-plate 0.4 (% composition in Isosensitest agar)), in [13] (MIC-plate 0.8 (% composition in Isosensitest agar)) and in data set [13] (MIC-plate 1.6 (% composition in Isosensitest agar)) was 7 each time. Besides, the “pH in the MIC plate” value in [13] (MIC-plate 3.1 (% composition in Isosensitest agar)), in [13] (MIC-plate 6.3 (% composition in Isosensitest agar)), in [13] (MIC-plate 12.5 (% composition in Isosensitest agar)), in [13] (MIC-plate 25 (% composition in Isosensitest agar)) and in data set [13] (MIC-plate 50 (% composition in Isosensitest agar)) was 7 in each case.
Turning to Hexylene glycol [Composition 3], the antimicrobial effect entry in data set [4] (1 % of the agent) is “lacked effect”; in data set [4] (5 % hexylene glycol), “a certain antimicrobial effect”; in data set [4] (10-30 % hexylene glycol), “showed antimicrobial effect within 20 hours”.
